Reference: US12612405B2, “Crystalline form of 1-(8-Bromopyrido[2,3-E][1,2,4]triazolo[4,3-a]pyrazin-4-Yl)-Nmethylazetidin-3-amine hydrogen sulfate monohydrate” (JW PHARMACEUTICAL CORPORATION, priority 2021, dated 2026)
Entries after “also recorded” stand apart in the source; their conditions may differ.

Key:
[1] = biological target: histamine 4 receptor (Homo sapiens, UniProt Q9H3N8); settings: cited from earlier work
[2] = test system: inflammatory cells such as mast cells and eosinophils; settings: cited from earlier work
[3] = Solubility in common crystallization solvents; settings: common crystallization solvents including alcohols
[4] = Interconversions between the crystalline forms (stability at rt, in suspension, during drying); format: physicochemical; settings: for solid phase stability / transition at room temperature: rt, ambient conditions; for stability during drying: drying process; for stability under conditions / suspensions with high water content: high amounts of water
Excerpt: The table below summarizes interconversions between the different forms and other issues which may be relevant to their use in pharmaceutical compositions: […]

[5] = Dynamic Vapor Sorption (DVS); format: physicochemical; settings: for hygroscopicity classification: according to Ph. Eur.
Description: Instrument: DVS Advantage
Methods: About 5 mg of the substance was added into Al pan and exposed to stepwise RH changes during two consecutive cycles according to; 20-30-40-50-60-70-80-70-60-50-40-30-20-10-0-10-20-30-40-50-60-70-80-90-80-70-60-50-40-30-20-10-0/RH using open loop mode. The experiments were performed using a gas flow rate of 200 ml/min and at 25° C. The dm/dt criteria applied was 0.001 weight-%/min during a 5 minutes window, with a maximum allowed time of 150 minutes for all steps, except for the steps at 0% RH which had no criteria but were set to 6 h.

[6] = Solubility according to Ph. Eur. and USP; format: physicochemical
Excerpt: The solubility of form B according to Ph.

[7] = Thermal stability by TGA / DSC; format: physicochemical
Description: TGA experiments were conducted using a TGA550 instrument from TA Instruments. About 1-10 mg of sample was loaded into a ceramic pan for the measurements. The sample temperature was ramped from 25 to 500° C. at 10° C./min. Nitrogen was used as the purge gas at a flow rate of 50 mL/min.
DSC analyses were carried out on a TA Instruments Q20 Differential Scanning Calorimeter. Accurately weighed samples were placed in crimped aluminum pans. Each sample was heated under nitrogen at a rate of 10° C./minute to a maximum of 300° C. Indium metal was used as the calibration standard.

histamine 4 receptor, sequence (Q9H3N8 whole entry): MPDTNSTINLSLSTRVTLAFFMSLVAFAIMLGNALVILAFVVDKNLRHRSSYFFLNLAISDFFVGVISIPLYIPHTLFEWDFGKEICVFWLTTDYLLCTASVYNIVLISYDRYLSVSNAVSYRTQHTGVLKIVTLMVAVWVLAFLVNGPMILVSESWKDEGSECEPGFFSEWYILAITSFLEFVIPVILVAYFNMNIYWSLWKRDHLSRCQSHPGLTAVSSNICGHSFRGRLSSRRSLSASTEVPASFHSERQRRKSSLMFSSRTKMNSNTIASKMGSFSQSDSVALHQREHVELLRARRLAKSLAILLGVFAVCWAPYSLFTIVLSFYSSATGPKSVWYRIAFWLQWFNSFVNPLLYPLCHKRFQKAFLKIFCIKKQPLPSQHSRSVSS

Question: For `CNC1CN(c2nc3ncc(Br)cc3n3cnnc23)C1` [1-(8-bromopyrido[2,3-e][1,2,4]triazolo[4,3-a]pyrazin-4-yl)-N-methylazetidin-3-amine], which “histamine 4 receptor inhibitory effect” value [1] is on record?
Answer: strong histamine 4 receptor inhibitory effect

Question: And the “effect against histamine induced infiltration of inflammatory cells” value [2]?
Answer: suppressive effects

Question: What about the “solubilities in common solvents used for crystallizations” value [3] of the same compound?
Answer: very low solubilities

Question: With `CNC1CN(c2nc3ncc(Br)cc3n3cnnc23)C1.O=S(=O)(O)O` [Form A, 1-(8-bromopyrido[2,3-e][1,2,4]triazolo[4,3-a]pyrazin-4-yl)-N-methylazetidin-3-amine hydrogen sulfate] as the compound, how does the “solid phase stability / transition at room temperature” value ([4]; hydrogen sulfate) read?
Answer: that undergoes solid phase transition to form B at rt over time.

Question: With `CNC1CN(c2nc3ncc(Br)cc3n3cnnc23)C1.O.O=S(=O)(O)O` [Form B, 1-(8-bromopyrido[2,3-e][1,2,4]triazolo[4,3-a]pyrazin-4-yl)-N-methylazetidin-3-amine hydrogen sulfate monohydrate] as the compound, how does the “water absorbed (DVS)” value ([5]; 25° C., between 10 and 80% RH) read?
Answer: By (DVS) it was demonstrated that form B absorbs 0.2%

Question: What about the hygroscopicity classification ([5]; DVS) of the same compound?
Answer: considered non-hygroscopic according to Ph. Eur. 5. (the increase in mass of a drug substance between about 0% to 80% relative humidity is less than 0.2% by weight)

Question: What about the solubility ([6]; 1-4-dioxane) of the same compound?
Answer: insoluble

Question: And the solubility ([6]; 1-propanol)?
Answer: insoluble

Question: What about the solubility ([6]; 2-propanol) of the same compound?
Answer: insoluble

Question: What about the solubility ([6]; acetone) of the same compound?
Answer: insoluble

Question: And the solubility ([6]; chloroform)?
Answer: insoluble

Question: What about the solubility ([6]; dimethyl sulfoxide) of the same compound?
Answer: Soluble

Question: What about the solubility ([6]; dimethylformamide) of the same compound?
Answer: slightly soluble

Question: What about the solubility ([6]; ethanol) of the same compound?
Answer: insoluble

Question: And the solubility ([6]; ethyl acetate)?
Answer: insoluble

Question: What about the solubility ([6]; isopropyl acetate) of the same compound?
Answer: insoluble

Question: And the solubility ([6]; methanol)?
Answer: very slightly soluble

Question: What about the solubility ([6]; methyl tert-butyl ether) of the same compound?
Answer: insoluble

Question: What about the solubility ([6]; n-butyl acetate) of the same compound?
Answer: insoluble

Question: What about the solubility ([6]; tert-amyl alcohol) of the same compound?
Answer: insoluble

Question: What about the solubility ([6]; tetrahydrofuran) of the same compound?
Answer: insoluble

Question: What about the solubility ([6]; water) of the same compound?
Answer: sparingly soluble

Question: What about the solubility ([6]; xylene) of the same compound?
Answer: insoluble

Question: Which “phase transition when humidity increased to 90%” value ([5]; DVS, humidity increased to 90%) does the source give for `CNC1CN(c2nc3ncc(Br)cc3n3cnnc23)C1.O=S(=O)(O)O` [Form C, 1-(8-bromopyrido[2,3-e][1,2,4]triazolo[4,3-a]pyrazin-4-yl)-N-methylazetidin-3-amine hydrogen sulfate] here?
Answer: observed and partial phase transition to the non-stoichiometric

Question: And the hygroscopicity classification ([5]; DVS)?
Answer: is just in the range for being slightly hygroscopic. DVS

Question: What about the “water uptake at increased relative humidity” value ([5]; increased relative humidity) of the same compound?
Answer: The anhydrate significantly takes up water at increased

Question: What about the “stability in liquid environment containing more than 20% water” value ([4]; liquid environment, more than 20% water) of the same compound?
Answer: 20% water form C will not be stable and therefore can be

Question: What does the source list for `CNC1CN(c2nc3ncc(Br)cc3n3cnnc23)C1.O=S(=O)(O)O` [Form D, 1-(8-bromopyrido[2,3-e][1,2,4]triazolo[4,3-a]pyrazin-4-yl)-N-methylazetidin-3-amine hydrogen sulfate]?
Answer: solid phase stability / transition at room temperature ([4]; hydrogen sulfate): solid phase transformation to form C.; stability in suspension formulations ([4]; suspension formulations, hydrogen sulfate): converts to forms F, I, or N depending on the conditions.

Question: With `CNC1CN(c2nc3ncc(Br)cc3n3cnnc23)C1.O=S(=O)(O)O` [Form F, 1-(8-bromopyrido[2,3-e][1,2,4]triazolo[4,3-a]pyrazin-4-yl)-N-methylazetidin-3-amine hydrogen sulfate] as the compound, how does the stability during drying ([4]; hydrogen sulfate) read?
Answer: Converts to another form during drying process. The water can; also recorded: very easily be dried off

Question: What about the “stability under conditions / suspensions with high water content” value ([4]; hydrogen sulfate) of the same compound?
Answer: with high water content form F converts to form I.

Question: Which stability during drying ([4]; hydrogen sulfate) does the source give for `CNC1CN(c2nc3ncc(Br)cc3n3cnnc23)C1.O=S(=O)(O)O` [Form I, 1-(8-bromopyrido[2,3-e][1,2,4]triazolo[4,3-a]pyrazin-4-yl)-N-methylazetidin-3-amine hydrogen sulfate] here?
Answer: not stable during drying at room temperature where it; also recorded: converts to form K, which then converts to form C at room; also recorded: product as it converts to form C in drying processes

Question: What about the “stability under conditions / suspensions with high water content” value [4] of the same compound?
Answer: the crystal structure. The dihydrate form I is the most stable

Question: Which stability during drying ([4]; hydrogen sulfate) does the source give for `CNC1CN(c2nc3ncc(Br)cc3n3cnnc23)C1.O=S(=O)(O)O` [Form K, 1-(8-bromopyrido[2,3-e][1,2,4]triazolo[4,3-a]pyrazin-4-yl)-N-methylazetidin-3-amine hydrogen sulfate] here?
Answer: Form K converts to form C in drying processes.

Question: What about the “solid phase stability / transition at room temperature” value ([4]; hydrogen sulfate) of the same compound?
Answer: Form K converts to form C at room temperature.

Question: What does the source list for `CNC1CN(c2nc3ncc(Br)cc3n3cnnc23)C1.O=S(=O)(O)O` [Form M, 1-(8-bromopyrido[2,3-e][1,2,4]triazolo[4,3-a]pyrazin-4-yl)-N-methylazetidin-3-amine hydrogen sulfate]?
Answer: broad endothermic event due to water loss and breakdown of the crystal lattice [7]: 44 °C; temperature of weight loss (TGA curve) ([7]; TGA): 50 °C; thermal stability ([7]; hydrogen sulfate): Form M is a monohydrate but loses water and melts at very; also recorded: this low thermal stability form M is not suitable for

Question: Which “solubilities in common solvents used for crystallizations” value [3] does the source give for `CNC1CN(c2nc3ncc(Br)cc3n3cnnc23)C1.O=S(=O)(O)O` [hydrogen sulfate salt, 1-(8-bromopyrido[2,3-e][1,2,4]triazolo[4,3-a]pyrazin-4-yl)-N-methylazetidin-3-amine hydrogen sulfate] here?
Answer: very low solubilities
